According to patent US10940139B2, “Compounds that interact with the Ras superfamily for the treatment of cancers, inflammatory diseases, rasopathies, and fibrotic disease” (Shy Therapeutics LLC, priority 2017, dated 2021):

Assays:
[1] = system: TNFα production in RAW 264.7 macrophage cell line; assay: Mouse TNF alpha quantification assay (LPS-stimulated macrophages, ELISA); format: cell-based; conditions: RAW264.7, RAW 264.7 murine leukemia virus transformed macrophage cell lines, LPS stimulation, read-out: TNF-α % Inhibition at 30 μM
[2] = system: IL6 production in RAW 264.7 macrophage cell line; assay: Mouse IL6 quantification assay (LPS-stimulated macrophages, ELISA); format: cell-based; conditions: RAW264.7, RAW 264.7 murine leukemia virus transformed macrophage cell lines, LPS stimulation, read-out: IL-6 % Inhibition at 30 μM

Row | Structure (SMILES) | inhibition at 30 µM [1] | inhibition at 30 µM [2]
1 | COc1cccc(-c2csc3c(O)nc(-c4ccccn4)nc23)c1 [drawing 2264] | 26 to 50% | 76 to 100%
2 | Oc1nc(-c2ccccn2)nc2c(-c3cccc(C(F)(F)F)c3)csc12 [drawing 2265] | 76 to 100% | 76 to 100%
3 | COc1ccc(F)cc1-c1csc2c(O)nc(-c3ccccn3)nc12 [drawing 2266] | 26 to 50% | 76 to 100%
4 | Oc1nc(-c2ccccn2)nc2c(-c3ccsc3)csc12 [drawing 2267] | 76 to 100% | 76 to 100%
5 | Oc1nc(-c2ccccn2)nc2c(-c3ccc(OC(F)F)cc3F)csc12 [drawing 2268] | 26 to 50% | 76 to 100%
6 | CC(C)COc1ccc(-c2csc3c(O)nc(-c4ccccn4)nc23)cn1 [drawing 2269] | 51 to 75% | 76 to 100%
7 | Cc1cc(OC(F)F)ccc1-c1csc2c(O)nc(-c3ccccn3)nc12 [drawing 2270] | 0% | 76 to 100%
8 | Oc1nc(-c2ccccn2)nc2c(-c3ccc4c(c3)OCO4)csc12 [drawing 2271] | 76 to 100% | 76 to 100%
9 | CC(C)(O)c1ccc(-c2csc3c(O)nc(-c4ccccn4)nc23)c(F)c1 [drawing 2272] | 76 to 100% | 76 to 100%
10 | COc1ccc(-c2csc3c(O)nc(-c4ccccn4)nc23)c(C)c1 [drawing 2273] | 76 to 100% | 76 to 100%
11 | Oc1nc(-c2ccccn2)nc2c(-c3ccc(CN4CCOCC4)cc3)csc12 [drawing 2274] | 0% | 26 to 50%
12 | Oc1nc(-c2ccccn2)nc2c(-c3ccccc3C(F)F)csc12 [drawing 2275] | 76 to 100% | 76 to 100%
13 | COc1cc(-c2csc3c(O)nc(-c4ccccn4)nc23)cnc1C(F)(F)F [drawing 2276] | 1 to 25% | 51 to 75%
14 | CNC(=O)c1ccc(-c2csc3c(O)nc(-c4ccccn4)nc23)cc1C [drawing 2277] | 0% | 26 to 50%
15 | OCC1(c2ccc(-c3csc4c(O)nc(-c5ccccn5)nc34)cc2)CC1 [drawing 2278] | 1 to 25% | 76 to 100%
16 | Oc1nc(-c2ccccn2)nc2c(-c3ccc(OC4CCCCC4)cc3)csc12 [drawing 2279] | 76 to 100% | 76 to 100%
17 | Cc1cnccc1-c1csc2c(O)nc(-c3ccccn3)nc12 [drawing 2280] | 26 to 50% | 76 to 100%
18 | O=C(CCn1ccnc1)Nc1nc(-c2ccccn2)nc2sccc12 [drawing 2281] | 0% | 51 to 75%
19 | O=C(CCc1nn[nH]n1)Nc1nc(-c2ccccn2)nc2sccc12 [drawing 2282] | 0% | 1 to 25%
20 | O=C(CCc1cncnc1)Nc1nc(-c2ccccn2)nc2sccc12 [drawing 2283] | 0% | 26 to 50%
21 | Nc1nc(-c2ccccn2)nc2c(Br)csc12 [drawing 2284] | 0% | 26 to 50%
22 | Cc1sc2c(N)nc(-c3ccccn3)nc2c1Br [drawing 2285] | 0% | 1 to 25%
23 | COC(=O)c1csc2nc(-c3ccccn3)nc(N)c12 [drawing 2287] | 0% | 51 to 75%

Row | Structure (SMILES) | inhibition at 30 µM [1] | inhibition at 30 µM [2]
24 | Oc1nc(-c2ccccn2)nc2c(-c3ccccn3)csc12 [drawing 2288] | 76 to 100% | 76 to 100%
25 | COc1nccc(CCNC(=O)c2csc3nc(-c4ccccn4)nc(N4CCOCC4)c23)n1 [drawing 2289] | 0% | 26 to 50%
26 | O=C(NCCc1ccnc(O)n1)c1csc2nc(-c3ccccn3)nc(N3CCOCC3)c12 [drawing 2290] | 0% | 1 to 25%
27 | CN1CCN(c2nc(-c3ccccn3)nc3scc(C(=O)NCCc4cnc(O)nc4)c23)CC1 [drawing 2291] | 26 to 50% | 26 to 50%
28 | Oc1nc(-c2ccccn2)nc2c(-c3cc(F)cc(F)c3)csc12 [drawing 2292] | 51 to 75% | 76 to 100%
29 | CN(C)Cc1ccc(F)c(-c2csc3c(O)nc(-c4ccccn4)nc23)c1 [drawing 2293] | 51 to 75% | 76 to 100%
30 | Oc1nc(-c2ccccn2)nc2c(-c3ccc4c(c3)CCCO4)csc12 [drawing 2294] | 0% | 1 to 25%
31 | CCn1nc(C)cc1-c1csc2c(O)nc(-c3ccccn3)nc12 [drawing 2295] | 51 to 75% | 76 to 100%
32 | Oc1nc(-c2ccccn2)nc2c(-c3ccnn3-c3ccccn3)csc12 [drawing 2296] | 0% | 51 to 75%
33 | Cc1sc2c(O)nc(-c3ccccn3)nc2c1-c1ccccc1 [drawing 2297] | 76 to 100% | 76 to 100%
34 | Nc1nc(-c2ccccn2)nc2scc(C(=O)O)c12 [drawing 2298] | 1 to 25% | 1 to 25%
35 | COC(=O)c1cc2nc(-c3ccccn3)nc(O)c2s1 [drawing 2299] | 51 to 75% | 76 to 100%
36 | Oc1nc(-c2ccccn2)nc2c(-c3cnc4ccccc4c3)csc12 [drawing 2300] | 1 to 25% | 76 to 100%
37 | Oc1nc(-c2ccccn2)nc2c(-c3ccc(Cl)c(Cl)c3)csc12 [drawing 2301] | 0% | 26 to 50%
38 | Oc1nc(-c2ccccn2)nc2c(-c3cncc(F)c3)csc12 [drawing 2302] | 0% | 51 to 75%
39 | Oc1nc(-c2ccccn2)nc2c(-c3cc(C(F)(F)F)ccc3F)csc12 [drawing 2303] | 1 to 25% | 76 to 100%
40 | Oc1nc(-c2ccccn2)nc2c(-c3cncc(C(F)(F)F)c3)csc12 [drawing 2304] | 0% | 1 to 25%
41 | Cc1cncc(-c2csc3c(O)nc(-c4ccccn4)nc23)c1 [drawing 2305] | 1 to 25% | 76 to 100%
42 | Cc1sc2c(O)nc(-c3ccccn3)nc2c1-c1cccnc1 [drawing 2306] | 0% | 51 to 75%
43 | COc1cnc(-c2ccccn2)nc1O [drawing 2307] | 1 to 25% | 76 to 100%
44 | COc1cnc(C2CCCN2)nc1O (stereo not shown) [drawing 2308] | 1 to 25% | 1 to 25%
45 | COc1nc(-c2ccccn2)nc2c(C3CCCC3)csc12 [drawing 2309] | 0% | 0%
46 | CCC(C)c1csc2c(OC)nc(-c3ccccn3)nc12 (stereo not shown) [drawing 2310] | 1 to 25% | 26 to 50%

Row | Structure (SMILES) | inhibition at 30 µM [1] | inhibition at 30 µM [2]
47 | COC(=O)c1c(C)sc2c(O)nc(-c3ccccn3)nc12 [drawing 2311] | 1 to 25% | 76 to 100%
48 | Cc1c(Br)sc2c(O)nc(-c3ccccn3)nc12 [drawing 2312] | 51 to 75% | 76 to 100%
49 | Cc1c(C(=O)O)sc2c(O)nc(-c3ccccn3)nc12 [drawing 2313] | 76 to 100% | 76 to 100%
50 | COC(=O)c1sc2c(O)nc(-c3ccccn3)nc2c1C [drawing 2314] | 0% | 1 to 25%
51 | Oc1nc(-c2ccccn2)nc2c3c(sc12)CNC3 [drawing 2315] | 1 to 25% | 0%
52 | Oc1nc(-c2ccccn2)nc2c(C3CCC3)csc12 [drawing 2316] | 76 to 100% | 76 to 100%
53 | COc1nc(-c2ccccn2)nc2c(C3CCCCC3)csc12 [drawing 2317] | 1 to 25% | 26 to 50%
54 | COc1nc(-c2ccccn2)nc2c(C3CCC3)csc12 [drawing 2318] | 1 to 25% | 1 to 25%
55 | CC(C)Oc1cnc(-c2ccccn2)nc1O [drawing 2319] | 1 to 25% | 76 to 100%
56 | Oc1cccc(-c2csc3c(O)nc(-c4ccccn4)nc23)n1 [drawing 2320] | 0% | 51 to 75%
57 | O=C(NCCc1ccncn1)c1csc2nc(-c3ccccn3)nc(N3CCOCC3)c12 [drawing 2321] | 0% | 1 to 25%
58 | CC(C)c1nn(C)cc1-c1csc2c(O)nc(-c3ccccn3)nc12 [drawing 2322] | 1 to 25% | 76 to 100%
59 | CN(C)CCOc1cccc(-c2csc3c(O)nc(-c4ccccn4)nc23)c1 [drawing 2323] | 76 to 100% | 76 to 100%
60 | Oc1nc(-c2ccccn2)nc2c(-c3cc(CN4CCCC4)ccc3F)csc12 [drawing 2324] | 0% | 51 to 75%
61 | N#Cc1cccc(-c2csc3c(O)nc(-c4ccccn4)nc23)c1 [drawing 2325] | 0% | 26 to 50%
62 | Oc1nc(-c2ccccn2)nc2c(-c3cncnc3)csc12 [drawing 2326] | 0% | 26 to 50%
63 | Cc1c(-c2csc3c(O)nc(-c4ccccn4)nc23)cnn1C [drawing 2327] | 51 to 75% | 76 to 100%
64 | Cc1nn(C(C)C)cc1-c1csc2c(O)nc(-c3ccccn3)nc12 [drawing 2328] | 26 to 50% | 76 to 100%
65 | Oc1nc(-c2ccccn2)nc2c(-c3cncc(C(F)F)c3)csc12 [drawing 2329] | 0% | 26 to 50%
66 | COc1ccc(CCC(=O)Nc2nc(-c3ccccn3)nc3sccc23)cn1 [drawing 2330] | 51 to 75% | 76 to 100%
67 | Cc1sc2c(O)nc(-c3ccccn3)nc2c1-c1ccncc1 [drawing 2331] | 0% | 26 to 50%
68 | Cc1sc2c(O)nc(-c3ccccn3)nc2c1C(=O)N1CCN(c2ccccc2)CC1 [drawing 2332] | 1 to 25% | 26 to 50%
